ChEMBL document CHEMBL1201862, “PubChem BioAssay data set” (2004)
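Following 48 hours of exposure in 96-well plates, responses at five concentrations were used to interpolate endpoints linearly. Abbreviation: GI50, concentration required for 50% inhibition of growth.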 The source made the active and inactive calls. Cut-off read from the data, not from the text of the source: active = GI50 up to about 1.1 µM and inactive = higher.

Assays:
Test in all cases: inhibition of tumour cell growth, NCI panel, 48 h
MDA-N = tested on: MDA-N
MDA-MB-231 = tested on: MDA-MB-231
MCF7 = tested on: MCF7
COLO 205 = tested on: COLO 205
HOP-62 = tested on: HOP-62
OVCAR-8 = tested on: OVCAR-8
NCI-H23 = tested on: NCI-H23
K562 = tested on: K562
NCI/ADR-RES = tested on: NCI/ADR-RES
U-251 = tested on: U-251
CAKI-1 = tested on: CAKI-1
UACC-62 = tested on: UACC-62
SNB-19 = tested on: SNB-19
BT-549 = tested on: BT-549
SR = tested on: SR
SF-295 = tested on: SF-295
HCC 2998 = tested on: HCC 2998
SK-OV-3 = tested on: SK-OV-3
T47D = tested on: T47D
DU-145 = tested on: DU-145

Measured: GI50

COc1ccc2c(c1O)[C@@]13CCCC=C1[C@@H](C2)N(C)CC3
inactive: MDA-N 61.5 µM | MDA-MB-231 77.6 µM | MCF7 81.5 µM | COLO 205 97.1 µM | HOP-62 > 100 µM | OVCAR-8 > 100 µM | NCI-H23 89.1 µM | K562 21.3 µM | NCI/ADR-RES 33 µM | U-251 > 100 µM | CAKI-1 > 100 µM | UACC-62 > 100 µM | SNB-19 > 100 µM | BT-549 34 µM | SR 25.6 µM | SF-295 > 100 µM | HCC 2998 > 100 µM | SK-OV-3 > 100 µM | T47D 90.2 µM | DU-145 > 100 µM

[C-]#[N+]C(=C\c1ccc(O)cc1)/C(=C/c1ccc(O)cc1)[N+]#[C-] [XANTOCILLIN]
inactive: MDA-N 1.47 µM | MDA-MB-231 2.74 µM | MCF7 1.55 µM | COLO 205 20.1 µM | HOP-62 3.21 µM | OVCAR-8 1.28 µM | NCI-H23 2.31 µM | NCI/ADR-RES 2.44 µM | U-251 1.57 µM | CAKI-1 2.25 µM | UACC-62 1.84 µM | SNB-19 2.55 µM | BT-549 2.41 µM | SR 1.67 µM | SF-295 4.02 µM | HCC 2998 3.49 µM | SK-OV-3 3.39 µM | T47D 3.34 µM | DU-145 2.53 µM
active: K562 0.465 µM

Oc1ncc(N(CCCl)CCCl)c(O)n1 [URACIL MUSTARD]
inactive: MDA-N 60.4 µM | MDA-MB-231 81.3 µM | MCF7 14.6 µM | COLO 205 63 µM | HOP-62 15 µM | OVCAR-8 42.2 µM | NCI-H23 15 µM | K562 42.5 µM | NCI/ADR-RES 23.7 µM | U-251 15.2 µM | CAKI-1 4.33 µM | UACC-62 6.7 µM | SNB-19 42.1 µM | BT-549 38.5 µM | SR 1.58 µM | SF-295 14.7 µM | HCC 2998 62.7 µM | SK-OV-3 47.2 µM | T47D 12.9 µM | DU-145 22.3 µM

CC(C)(C)OC(=O)N(O)[C@@H]1C=C[C@H](n2cnc3c(N)ncnc32)C1
inactive: MDA-N > 100 µM | MDA-MB-231 > 100 µM | MCF7 > 100 µM | COLO 205 > 100 µM | HOP-62 43 µM | OVCAR-8 > 100 µM | NCI-H23 > 100 µM | K562 > 100 µM | NCI/ADR-RES > 100 µM | U-251 > 100 µM | CAKI-1 > 100 µM | UACC-62 > 100 µM | SNB-19 > 100 µM | BT-549 > 100 µM | SR > 100 µM | SF-295 > 100 µM | HCC 2998 > 100 µM | SK-OV-3 > 100 µM | T47D > 100 µM | DU-145 > 100 µM

Cc1cc(NC[C@H](O)[C@H](O)[C@H](O)CO)c(Sc2cc(=O)[nH]c(=O)[nH]2)cc1C
inactive: MDA-N > 62.5 µM | MDA-MB-231 > 62.5 µM | MCF7 > 62.5 µM | COLO 205 > 62.5 µM | HOP-62 > 62.5 µM | OVCAR-8 > 62.5 µM | NCI-H23 > 62.5 µM | K562 > 62.5 µM | NCI/ADR-RES > 62.5 µM | U-251 > 62.5 µM | CAKI-1 > 62.5 µM | UACC-62 > 62.5 µM | SNB-19 > 62.5 µM | BT-549 > 62.5 µM | SR > 62.5 µM | SF-295 > 62.5 µM | HCC 2998 > 62.5 µM | SK-OV-3 > 62.5 µM | T47D > 62.5 µM | DU-145 > 62.5 µM

C[C@@]12C[C@@H](c3ccccc3O1)N1Cc3ccccc3CSC1=N2
inactive: MDA-N 93.5 µM | MDA-MB-231 > 100 µM | MCF7 50.4 µM | COLO 205 35.2 µM | HOP-62 > 100 µM | OVCAR-8 > 100 µM | NCI-H23 > 100 µM | K562 64.9 µM | NCI/ADR-RES > 100 µM | U-251 52.8 µM | CAKI-1 > 100 µM | UACC-62 81.5 µM | SNB-19 > 100 µM | BT-549 95.9 µM | SR > 100 µM | SF-295 > 100 µM | HCC 2998 33.3 µM | SK-OV-3 > 100 µM | T47D 72.9 µM | DU-145 69.3 µM

CCO/N=C(/CC)c1ccc(Br)s1
inactive: MDA-N > 100 µM | MDA-MB-231 > 100 µM | MCF7 > 100 µM | COLO 205 > 100 µM | HOP-62 > 100 µM | OVCAR-8 > 100 µM | NCI-H23 > 100 µM | K562 > 100 µM | NCI/ADR-RES > 100 µM | U-251 > 100 µM | CAKI-1 > 100 µM | UACC-62 > 100 µM | SNB-19 > 100 µM | BT-549 > 100 µM | SR 52.2 µM | SF-295 > 100 µM | HCC 2998 > 100 µM | SK-OV-3 > 100 µM | T47D > 100 µM | DU-145 > 100 µM

COc1cc(-c2c(C#N)c(N)c(C#N)c3c2COc2ccccc2-3)cc(OC)c1OC
inactive: MDA-N > 100 µM | MDA-MB-231 15.1 µM | MCF7 > 100 µM | COLO 205 > 100 µM | HOP-62 7.5 µM | OVCAR-8 28.6 µM | NCI-H23 31.6 µM | K562 > 60.4 µM | NCI/ADR-RES 42.5 µM | U-251 12.4 µM | CAKI-1 53.1 µM | UACC-62 30.2 µM | SNB-19 13.2 µM | BT-549 31.6 µM | SR > 74 µM | SF-295 24.9 µM | HCC 2998 16.6 µM | SK-OV-3 14.6 µM | T47D > 46.9 µM | DU-145 43.4 µM

Cc1cc2c(c(/C=N/c3ccc([N+](=O)[O-])cc3)c1)OC1(C=C2)Oc2ccccc2C(=O)N1C (stereo not given)
inactive: MDA-N 24.8 µM | MDA-MB-231 16.9 µM | MCF7 17.6 µM | COLO 205 20 µM | HOP-62 29.9 µM | OVCAR-8 16.1 µM | NCI-H23 18.2 µM | K562 19.2 µM | NCI/ADR-RES 18.9 µM | U-251 21.7 µM | CAKI-1 13.8 µM | UACC-62 17.2 µM | SNB-19 34.4 µM | BT-549 19.6 µM | SR 12.3 µM | SF-295 24.4 µM | HCC 2998 19.8 µM | SK-OV-3 22.2 µM | T47D 7.89 µM | DU-145 22.3 µM

O=C1C(Cl)C(c2cccc(Br)c2)N1c1c(O)c(Cl)cc(Br)c1Cl (stereo not given)
inactive: MDA-N 18.5 µM | MDA-MB-231 17 µM | MCF7 12.1 µM | COLO 205 8.63 µM | HOP-62 13.8 µM | OVCAR-8 30.3 µM | NCI-H23 16.6 µM | K562 15.9 µM | NCI/ADR-RES 23.8 µM | U-251 12.7 µM | CAKI-1 19.3 µM | UACC-62 14.5 µM | SNB-19 1.38 µM | BT-549 25.8 µM | SR 20.4 µM | SF-295 17.4 µM | HCC 2998 11.1 µM | SK-OV-3 18.3 µM | T47D 15.2 µM | DU-145 14.9 µM

CCCCCCNC(=O)CCC(NC(=O)c1ccc(N(C)Cc2cnc3nc(N)nc(N)c3n2)cc1)C(=O)NCCCCCC (stereo not given)
inactive: MDA-N 9.89 µM | MDA-MB-231 34.8 µM | MCF7 18.3 µM | COLO 205 > 100 µM | HOP-62 > 100 µM | OVCAR-8 > 100 µM | NCI-H23 > 100 µM | K562 2.52 µM | NCI/ADR-RES > 100 µM | U-251 > 100 µM | CAKI-1 > 100 µM | UACC-62 2.68 µM | SNB-19 > 100 µM | BT-549 > 100 µM | SR > 100 µM | SF-295 16.7 µM | HCC 2998 > 100 µM | SK-OV-3 17.7 µM | T47D > 100 µM | DU-145 89.3 µM

O=C(CNC(c1ccccc1)(c1ccccc1)c1ccccc1)NC1CCCCC1NC(=O)CNC(c1ccccc1)(c1ccccc1)c1ccccc1 (stereo not given)
inactive: MDA-N > 100 µM | MDA-MB-231 > 100 µM | MCF7 > 100 µM | COLO 205 > 100 µM | HOP-62 27.8 µM | OVCAR-8 > 100 µM | NCI-H23 > 100 µM | K562 > 100 µM | NCI/ADR-RES > 100 µM | U-251 43 µM | CAKI-1 > 100 µM | UACC-62 > 100 µM | SNB-19 > 100 µM | BT-549 > 100 µM | SR > 100 µM | SF-295 > 100 µM | HCC 2998 > 100 µM | SK-OV-3 > 100 µM | T47D > 100 µM | DU-145 > 100 µM

CC[C@]1(c2ccc3c(c2)OCO3)C=[N+]([O-])O[C@H](OC2CCCC2(c2ccccc2)c2ccccc2)[C@@H]1OC(C)=O (stereo not given in full)
inactive: MDA-N 3.83 µM | MDA-MB-231 4.01 µM | MCF7 2.47 µM | COLO 205 2.23 µM | HOP-62 2.08 µM | OVCAR-8 1.95 µM | NCI-H23 2.48 µM | K562 2.36 µM | NCI/ADR-RES 1.92 µM | U-251 3.62 µM | CAKI-1 3.42 µM | UACC-62 1.95 µM | SNB-19 3.22 µM | BT-549 2.53 µM | SR 2.22 µM | SF-295 1.32 µM | HCC 2998 1.85 µM | SK-OV-3 3.01 µM | T47D 2.09 µM | DU-145 2.1 µM
